Laboratory results published in patent US20240366540A1, “MITOFUSIN INHIBITORS AND USES THEREOF” (Albert Einstein College of Medicine, priority 2021, published 2024).
Starred links: 1 amine or outer side, 2 acyl side, 3 side chain; linkers in the order of their positions; H or OH if unused. Positions of bridges follow the written chain, without caps; N, C: chain ends. Non-standard residues stand in square brackets, D forms with d. Residues, ends and D or L forms follow the SMILES beside them. Chains are numbered I, II in the order given. Hexamethylenediamine = C(CCCN[*:2])CCN[*:1]; Dip = N[C@H](C(=O)O)C(c1ccccc1)c1ccccc1; Chg = N[C@H](C(=O)O)C1CCCCC1; NMeA = CN[C@@H](C)C(=O)O

T1: HR2 domain of MFN2 (residues 678-757) (Homo sapiens, UniProt O95140)
T1 sequence (O95140 678-757): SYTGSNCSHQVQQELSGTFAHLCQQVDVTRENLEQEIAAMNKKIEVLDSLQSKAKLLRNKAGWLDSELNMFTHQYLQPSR


Columns and labels:
cells = test: Cell death assay (Annexin V / propidium iodide); format: cell-based
Method: Cell death assay. Cells (2×10^5 cells/well) were seeded in a 6-well plate and treated with the indicated drugs for 6 hours. Cells were dissociated using Accutase (Thermo Fisher; Cat. #00-4555-56) in order to avoid accidental exposure of phosphatidylserine on the outer plasma membrane. Cell death was evaluated with Dead Cell Apoptosis Kit with Annexin V Alexa Fluor™ 488 & Propidium Iodide (Thermo Fisher; Cat. #V13241) according to manufacturer's protocol. Data was acquired by BD LSRII flow cytometer system using BD FACSDiva software. Data was analyzed by FlowJo (BD).

[1] = target: T1, HR2 domain of MFN2 (residues 678-757); test: Microscale thermophoresis (MST) binding; details: His-tagged MFN2-HR2, 30° C.
Method: Microscale Thermopheresis. Freshly purified His-tagged MFN2-HR2 domain was used for Microscale Thermophoresis (MST) binding studies. For protein labelling, a fresh stock of 5 μM His-tag-RED-tris-NTA 2nd generation dye (Nanotemper) in 25 mM Hepes pH 7.5, 100 mM NaCl, 0.005% Tween-20 (assay buffer) was used to label 500 nM of MFN2-HR2 in the same buffer. The labeling reaction was incubated for 30 min at RT and centrifuged at 15.000×g at 4° C. for 10 min. Labelled protein from the supernatant was kept on ice and used immediately. Compounds were serially diluted in 100% DMSO. Immediately before mixing with labeled protein, the dilution series was transferred in assay buffer to reach 2% DMSO. 10 μl of each compound in the final series was mixed with 10 μl of labeled protein and samples were incubated for 5 min at 30° C. before MST measurement using a MonolithNT.115 instrument (Nanotemper). Peptides were diluted in assay buffer plus 2% DMSO and treated as above. […] Kd values were obtained from non-linear regression fits of normalized data to a three or four parameter logistic curve, using GraphPad Prism 9.

MEFs [2] = test: Caspase-3/7 activation assay; format: cell-based, mouse; details: 6 hr, Caspase-Glo 3/7
Method: Caspase-3/7 activation assay. Cells (5×10^3 cells/well) were seeded in a 96-well white plate and treated with MASM7, MFI8. Caspase 3/7 activation was measured after 6 hr by addition of the Caspase-Glo 3/7 reagent according to the manufacturer's protocol (Promega). Luminescence was detected by a F200 PRO microplate reader (TECAN). Caspase assays were performed in at least triplicate and the data normalized to vehicle-treated control wells. Dilutions of MASM7 or MFI8 were performed using a TECAN D300e Digital Dispenser from 10 mM stocks.

MEFs [3] = test: Mitochondrial aspect ratio (Mito AR), live cell imaging; details: for activity to promote mitochondrial fusion or fision: MASMs: fusion, MFIs: fission; for capacity to promote mitochondrial fragmentation in cells (activity of MFI8 analogue): compared with MFI8; for mitochondrial aspect ratio: MEFs, MitoTracker Green
Method: Live cell imaging. MEFs were seeded on chamber slides (MatTek Corporation: 35 mm dishes, No. 1.5, 14 mm glass diameter) at ˜70% confluence. […] Images were taken with Leica SP5 inverted confocal microscope. Data were analyzed with Image J software. >200 mitochondria were measured per condition in mitochondrial aspect ratio.
Measurement of mitochondrial aspect ratio (Mito AR). Images that depict stained mitochondria with mitotracker green were analyzed using FIJI We measured for each mitochondrion its length and width. Then, we divided the length by the width for each mitochondrion to get its mitochondrial aspect ratio. >200 mitochondria were measured per treatment.

[4] = target: the molecule itself; test: blue native PAGE of digitonin lysates of isolated MEF mitochondria, anti-MFN2 blot

| Molecule | direct binding to the HR2 domain of MFN2 (MST) [1] | activity to promote mitochondrial fusion or fision (MEFs [3]) | capacity to promote mitochondrial fragmentation in cells (activity of MFI8 analogue) (MEFs [3]) | mitochondrial aspect ratio (MEFs [3]) | also measured |
| --- | --- | --- | --- | --- | --- |
| CN[C@@H](C)C(=O)N[C@H](C(=O)N1CCC[C@H]1C(=O)N[C@H](C(=O)NCCCCCCNC(=O)[C@@H](NC(=O)[C@@H]1CCCN1C(=O)[C@@H](NC(=O)[C@H](C)NC)C1CCCCC1)C(c1ccccc1)c1ccccc1)C(c1ccccc1)c1ccccc1)C1CCCCC1 [BV6, reference compound] (I: H-[NMeA][Chg]P[Dip] / II: H-[NMeA][Chg]P[Dip]; linker I:C-II:C via Hexamethylenediamine) | – | – | – | – | cell death upon BV6 treatment (cells; deletion of MFNs): sensitized cells to BV6 treatment |
| Cc1cccc(NC(C)c2ccccc2O)c1C (centres unmarked) [MFI22, 2-(1-((2,3-Dimethylphenyl)amino)ethyl)phenol] | did not demonstrate measurable binding | inability or weak activity | significantly reduced the capacity of the compound to promote mitochondrial fragmentation | – | caspase-3/7 activity (MEFs [2]): did not increase caspase-3/7 activity; sensitization to BV6-induced cell death (cells; in combination with BV6): did not sensitize cells to BV6 treatment |
| Cc1cccc(NCc2cc(Cl)ccc2O)c1C [MFI23, 4-Chloro-2-(((2,3-dimethylphenyl)amino)methyl)phenol] | demonstrated direct binding | – | minimal effect on the activity | decreasing | – |
| Cc1cccc(NCc2cc(Cl)ccc2O)c1 [MFI24, 4-Chloro-2-((m-tolylamino)methyl)phenol] | – | – | – | did not reduce mitochondrial aspect ratio | – |
| Cc1cccc(NC(C)c2cccc(Cl)c2)c1C (centres unmarked) [MFI26, N-(1-(3-chlorophenyl)ethyl)-2,3-dimethylaniline] | did not demonstrate measurable binding | inability or weak activity | detrimental for the activity | – | – |
| MFN2 (endogenous, in mitochondria isolated from MEFs) (other, mouse (MEFs), UniProt Q80U63 1-757, looked up, whole, on cells; The protein stood in isolated mitochondria, not on whole cells; It was solubilised with digitonin and resolved by blue native PAGE; also called mitofusin-2) MSLLFSRCNSIVTVKKDKRHMAEVNASPLKHFVTAKKKINGIFEQLGAYIQESASFLEDTHRNTELDPVTTEEQVLDVKGYLSKVRGISEVLARRHMKVAFFGRTSNGKSTVINAMLWDKVLPSGIGHTTNCFLRVGGTDGHEAFLLTEGSEEKKSVKTVNQLAHALHQDEQLHAGSMVSVMWPNSKCPLLKDDLVLMDSPGIDVTTELDSWIDKFCLDADVFVLVANSESTLMQTEKQFFHKVSERLSRPNIFILNNRWDASASEPEYMEEVRRQHMERCTSFLVDELGVVDRAQAGDRIFFVSAKEVLSARVQKAQGMPEGGGALAEGFQVRMFEFQNFERQFEECISQSAVKTKFEQHTVRAKQIAEAVRLIMDSLHIAAQEQRVYCLEMREERQDRLRFIDKQLELLAQDYKLRIKQITEEVERQVSTAMAEEIRRLSVLVDEYQMDFHPSPVVLKVYKNELHRHIEEGLGRNLSDRCSTAIASSLQTMQQDMIDGLKPLLPVSMRNQIDMLVPRQCFSLSYDLNCDKLCADFQEDIEFHFSLGWTMLVNRFLGPKNSRRALLGYSDQVQRPLPLTPANPSMPPLPQSSLTQEELMVSMVTGLASLTSRTSMGILVVGGVVWKAVGWRLIALSFGLYGLLYVYERLTWTTKAKERAFKRQFVEYASEKLQLIISYTGSNCSHQVQQELSGTFAHLCQQVDITRDNLEQEIAAMNKKVEALDSLQSRAKLLRNKAGWLDSELNMFTHQYLQPSR | – | – | – | – | binding result [4]: binds |
